Measured values as given in US7037502B2, “Peptide with the amino acid sequence of KVLDGQDP having anti-inflammatory properties” (priority 2001, dated 2006).
Entries after “also recorded” stand apart in the source; their conditions may differ. Marks after values point to notes of the source that are not given here.

How the values were obtained:
[1] = tested on: eosinophil infiltration of conjunctiva; test: Allergic conjunctivitis to ragweed in guinea pig: histology, eosinophil count in conjunctiva; assay type: in vivo, Hartley female guinea pig; settings: for Anti-inflammatory activity, overall conclusion in words: allergic conjunctivitis model in guinea pig, summary of Example 2; for Statistical evaluation of eosinophil count (Mann-Whitney test), P compared to Dexamethasone / Statistical evaluation of eosinophil count (Mann-Whitney test), P compared to Livostine / Statistical evaluation of eosinophil count (Mann-Whitney test), P compared to No treatment group: eosinophils in three fields of conjunctiva (×400), 12 eyes per group, eye drops
Description: The peptides of the present invention were analyzed in experimental model of allergic conjunctivitis to ragweed (giant ragweed; Ambrosia trifida) in guinea pig. Hartley strain of guinea pig was selected according to previous reports of conjunctival anaphylaxis (Calonge M., et al., Acta Ophthalmol 68; 470–476, 1990) and females were chosen based on the sex dimorphism of ocular mucosal immunity with the protective role of male hormones (Saruya S., et al., Act Soc Ophthalmol Jap 72; 833–845, 1968). The conjunctival redness and edema are main signs of seasonal allergic conjunctivitis and eosionphil infiltration is the hallmark of the conjunctival histology in patients with allergic conjunctivitis (Abelson M B., et al., Arch Ophthalmol. 101; 555–556, 1983; Butrus S I., et al., Int. Ophthalmol. Clin. 28; 324–328, 1988)
86 Hartley female guinea pigs, 200–250 g were housed in the animal facilities of the Asan Institute for Life Sciences (Korea), given guinea pig chow and water ad libitum, and cared for in accordance with the Declaration of Helsinki and the National Institute of Health Guide to the Care and Use of the Laboratory Animals (Korea).
On day 15, immunized guinea pigs were divided 14 groups, 6 for each group. 11 anti-inflammatory peptides including new recombinants, dexamethasone eye drop (Maxidex, 0.1% dexamethasone, Alcon) and anti-histamine eye drop (Livostin, levocabastine, Janssen) were used for 13 groups, and no treatment for one group. Normal controls were employed as 6 non-immunized and non-treated guinea pigs. […] All the procedures were followed experimental model of allergic conjunctivitis described by Merayo-Lloves et al (Experimental model of allergic conjunctivitis to ragweed in guinea pig. Curr. Eye Res. 14; 487–494, 1995).
Anti-inflammatory peptides were resolved in sterile saline (100 μmol/40 μl concentration). All peptides and dexamethasone eye solutions were challenged 3 hour prior to the last pollen application on day 15, 10 minutes after pollen application, and 4 times thereafter at the 3 hour interval.
The orbits were excentrated after the animals were killed with CO2 asphyxia, and specimens were prepared for light microscopic examination. Sectioned specimens were stained with hematoxylin-eosin.
Eosinophils in the standardized fields of conjunctival epithelium, the immediate subepithelial, and the stroma were counted in three non-consecutive fields (magnification ×400) for each treatment in each experiment (12 eyes in each group).

[2] = molecular target: T1, TGase (Guinea pig liver, EC 2.3.2.13) (UniProt P08587); test: Inhibitory effect of synthetic peptides on TGase in vitro ([14C]-putrescine incorporation into succinylated casein); assay type: biochemical; settings: peptides 1×10^−8 M, preincubated 15 min at 37° C.; compared with the peptides known as PLA2 inhibitors
T1 construct: 0.001 U TGase (Guinea pig liver, EC 2.3.2.13, Sigma); purchased Sigma; host or cells: guinea pig liver
T1 sequence (P08587 1-690): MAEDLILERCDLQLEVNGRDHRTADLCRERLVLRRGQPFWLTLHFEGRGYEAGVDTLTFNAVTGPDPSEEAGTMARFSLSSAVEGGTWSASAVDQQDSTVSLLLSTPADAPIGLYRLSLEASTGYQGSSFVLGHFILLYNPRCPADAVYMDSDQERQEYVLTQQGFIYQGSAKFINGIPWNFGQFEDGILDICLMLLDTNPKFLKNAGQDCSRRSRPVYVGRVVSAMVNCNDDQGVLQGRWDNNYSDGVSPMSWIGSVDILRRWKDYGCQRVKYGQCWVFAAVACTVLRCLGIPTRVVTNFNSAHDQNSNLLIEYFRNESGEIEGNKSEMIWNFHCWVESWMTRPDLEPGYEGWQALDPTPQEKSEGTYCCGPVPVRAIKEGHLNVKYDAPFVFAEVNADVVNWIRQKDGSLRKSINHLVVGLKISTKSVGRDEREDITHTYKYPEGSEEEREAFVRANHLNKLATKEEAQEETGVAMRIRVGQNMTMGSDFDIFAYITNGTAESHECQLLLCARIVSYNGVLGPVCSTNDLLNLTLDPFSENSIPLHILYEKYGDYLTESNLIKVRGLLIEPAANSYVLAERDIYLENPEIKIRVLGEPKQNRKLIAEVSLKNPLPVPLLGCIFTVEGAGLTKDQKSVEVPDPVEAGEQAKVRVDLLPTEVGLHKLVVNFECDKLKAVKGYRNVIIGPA
From the text: It is needed to inhibit the activity of TGase in order to secure maximum anti-inflammatory activity since the TGase activates PLA2. A established TGase assay method was used to determine the enzymatic activity by measuring the incorporation of [1,4]^14C-putrescine into succinylated casein (Folk J E., et al., Transglutaminase. Methods in Enzymol 1985; 113; 358–375).
To determine the inhibitory activity, 0.001 U TGase (Guinea pig liver, EC 2.3.2.13, Sigma; 1.0 unit will catalyze the formation of […] of hydroxamate per min. from N- -CBZ-Gln-Gly and hydroxylamine at pH 6.0 at 37° C.) was preincubated for 15 minutes with the synthetic peptides in 0.1 ml (1×10^−8 M) at 37° C. before adding the TGase/peptide mixture to the substrate solution (0.5 ml) containing 0.1 M Tris-acetate pH 7.5, 1% succinylated casein, 1 mM EDTA, 10 mM CaCl2, 0.5% lubrol PX, 5 mM DTT, 0.15M NaCl and 0.5 mCi ^14C-putrescine [Dupont-New England Nuclear, Wilmington, […] (118 Ci/mole)]. […] The TCA-insoluble precipitates were collected onto GF/A glass fiber filters, washed with cold 5% TCA, dried and counted. […]
For inhibitory test of the peptides given, each value is the mean of data from three separate experiments (S.D.<10%). The value of TGase activity incubated without peptides was determined as 100% TGase activity that is 4.89 pmole putrescine/hr. % Inhibition was shown in FIG. 2.

Row | Sequence | Anti-inflammatory activity, overall conclusion in words ([1]; listed as SEQ ID NO:2) | Statistical evaluation of eosinophil count (Mann-Whitney test), P compared to Dexamethasone [1] | Statistical evaluation of eosinophil count (Mann-Whitney test), P compared to Livostine [1] | Statistical evaluation of eosinophil count (Mann-Whitney test), P compared to No treatment group [1] | Histological signs (eosinophil infiltration), result in words ([1]; n=12, P<0.01, SD<10%, Mann-Whitney test, listed as SEQ ID NO:2) | TGase activity (FIG. 2), result in words [2] | Anti-inflammatory activity, overall conclusion in words [1]
1 | KVLDGQDP [Peptide R2, synthetic peptide of the invention] | excellent anti-inflammatory activity in comparison with other known peptide sequences; also recorded: much higher activity than the steroidal anti-inflammatory dexamethasone | 0.001* | 0.002* | 0.000 | statistically significant difference from other groups; also recorded: the most effective | significantly reduced | –
2 | KVLDPVKG [Peptide R1, synthetic peptide of the invention] | – | 0.001 | 0.002 | 0.002 | – | significantly reduced | excellent anti-inflammatory activity in comparison with other known peptide sequences
